Source: EP0472220A1, “Bradykinin antagonists” (SYNTEX (U.S.A.) INC., priority 1990, dated 1992)
≈ marks a conversion by molar mass, not a printed value. Where a SMILES comes first, the peptide text is derived from it. Where no end group is shown, it is not given here. [ ]: non-standard residue; d: D form. d(hArg)(Nω,Nω'-(CH2CF3)2) = N[C@H](CCCCNC(=NCC(F)(F)F)NCC(F)(F)F)C(=O)O; Oic = O=C(O)[C@@H]1C[C@@H]2CCCC[C@@H]2N1; Arg(Me2s) = CN=C(NC)NCCC[C@H](N)C(=O)O; Arg(Et) = CCNC(=N)NCCC[C@H](N)C(=O)O; Arg(Me) = CNC(=N)NCCC[C@H](N)C(=O)O; Hyp = O=C(O)[C@@H]1C[C@@H](O)CN1; dTic = O=C(O)[C@H]1Cc2ccccc2CN1; 2Thi = N[C@@H](Cc1cccs1)C(=O)O

What was measured:
Bradykinin Receptor = target: T1, Bradykinin Receptor (Cavia porcellus, UniProt O70526); assay: Guinea pig ileum bradykinin receptor binding assay; conditions: concentration of analog that reduced the binding of 100 pM [³H]bradykinin by 50%; guinea pig ileum membrane preparation; read-out: IC₅₀
T1 construct: A 5 cm section of the distal ileum was removed, rinsed in cold saline and homogenized; from tissue; host or cells: guinea pig distal ileum, crude membrane pellet
T1 sequence (O70526 1-372): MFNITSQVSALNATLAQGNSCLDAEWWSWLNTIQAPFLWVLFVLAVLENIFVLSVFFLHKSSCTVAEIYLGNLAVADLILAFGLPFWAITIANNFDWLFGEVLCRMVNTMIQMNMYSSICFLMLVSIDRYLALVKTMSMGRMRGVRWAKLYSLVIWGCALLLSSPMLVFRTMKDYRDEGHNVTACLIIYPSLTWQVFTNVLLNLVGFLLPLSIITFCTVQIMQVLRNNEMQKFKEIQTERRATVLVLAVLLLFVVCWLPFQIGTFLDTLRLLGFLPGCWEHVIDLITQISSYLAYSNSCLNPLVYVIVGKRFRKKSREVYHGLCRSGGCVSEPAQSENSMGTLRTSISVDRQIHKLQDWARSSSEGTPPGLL
Experimental: The bradykinin analogs were assayed using a cell-free membrane receptor binding assay described by Innis et al Proc. Natl. Acad. Sci. USA 1981, 78:2630. Male Hartley guinea pigs (400-500g, Charles River) were euthanized by CO₂ asphyxiation. A 5 cm section of the distal ileum was removed, rinsed in cold saline and homogenized in 20 volumes of cold 20 mM TES buffer, pH 6.8, 1mM 1,10-phenanthroline using a Tissumizer (Tekmar) at 75% maximum speed for 12 seconds. The homogenate was centrifuged at 15,000 X g for 25 minutes at 4°C. The crude membrane pellet was washed once in 20 volumes of fresh homogenizing buffer and resuspended in assay buffer (25 mM TES buffer, pH 6.8, 1 mM dithiothreitol, 1 mM 1,10-phenanthroline, 1 µM captopril, 0.014% bacitracin and 0.1% bovine serum albumin) at 100 mL buffer per gram issue. The membrane preparation was quick-frozen in liquid N₂ and stored at -80°C.
The reaction mixture for the receptor binding assay contained bradykinin analog (1-1000 nM), 100 pM [³H]bradykinin (88 Ci/mmol) and 200 µl membrane preparation in a total volume of 500 µl assay buffer. Reactions were incubated at room temperature for 90 minutes and membrane-bound [³H]bradykinin was isolated by filtration through PEI-coated glass fiber filters. The filters were dried and counted for radioactivity in a liquid scintillation counter. Specific binding was calcuated by subtracting the nonspecific binding (determined in a parallel set of assays in the presence of 1 µM unlabeled bradykinin) from the total radioactivity bound to the filters. All incubations were performed in duplicate and the data expressed as % reduction in the specific binding of [³H]bradykinin. The IC₅₀ (the concentration of analog that reduced the binding of 100 pM [³H]bradykinin by 50%) was determined graphically from a plot of % reduction vs. log concentration.

in vitro [1] = assay: in vitro
Experimental: (§1) The ability of bradykinin antagonists to resist proteolysis was determined by measuring the half-life of the analogs in plasma using HPLC. Rat blood was collected into heparin-containing tubes and centrifuged at 2000 X g for 10 minutes at 4°C to separate the plasma. Plasma samples were supplemented with bradykinin analogs (60 µM) and incubated at 37°C. At various times during incubation, an aliquot was removed and the reaction was stopped with 10% trifluoroacetic acid (TFA). The reaction mixture was applied to a 1 mL C₁₈ solid-phase extraction column (Baker) preconditioned with methanol and 10% TEA in H₂O. The analog was eluted with 3 x 100 µl of 15% acetonitrile (CH₃CN), 85% H₂O containing 0.2% TFA. The eluent was dried in a Speed-Vac concentrator (Savant) and redissolved in 300 µL of mobile phase consisting of various proportions of CH₃CN and H₂O containing 0.2% TEA depending on the analog. The sample was injected onto a Pecosphere® (Perkin-Elmer) 3 µm C₁₈ cartridge column (3.3 x 0.46 cm) and eluted with mobile phase at a flow rate of 1 ml/min using a Waters HPLC system. The analog was monitored by uv absorption at 210 nm and the results analyzed with a Hewlett-Packard integrator. Peak height was used to quantitate the amount of analog present in the sample. Plasma degradation followed first-order kinetics and the t1/2 (the time required for half the sample to be degraded) was determined graphically from a plot of log % analog remaining vs. incubation time.

in vitro [2] = assay: in vitro; remark: listed apart in the source
Experimental: as §1

[3] = tested on: Bradykinin-induced Hypotension; assay: Protection against bradykinin-induced hypotension in rats; format: in vivo, Male Sprague-Dawley rats; conditions: co-administration (50-200 nmol/kg) with bradykinin (0.4 µg/kg) via carotid cannula, anesthetized rats
Experimental: Male Sprague-Dawley rats (200-300 g, Charles River) were anesthetized with 40 mg/kg ip sodium pentobarbital. The left femoral artery and vein were fitted with polyethylene cannulas (Intramedic PE-50) and the left carotid artery was fitted with a PE-20 cannula. […] The femoral arterial cannula was connected to a blood pressure transducer (Statham) and Beckman dynograph for recording systolic and diastolic pressure. The femoral venous cannula was used to administer maintenance anesthesia. […] All cannulas were filled with heparinized (40 U/mL) saline to maintain patency. Rats were placed on a 37°C water blanket and allowed to reach a stable anesthetic plane characterized by a mean arterial blood pressure of ≧90 mm Hg and a positive response to a toe pinch.

[4] = Ferreira et al. 1967; cited from earlier work
[5] = tested on: rat peritoneal mast cells; conditions: rat mixed peritoneal cells, 15 minutes, 35°C
Experimental: Mixed peritoneal cells were recovered from 3 or 4 male Sprague-Dawley rats (350 g, Iffa-Credo, France) by intraperitoneal injection of 10 mL of 0.9% NaCl (containing 50 µg/mL heparin). After gentle massage of the abdominal cavity for 1 minute, the peritoneal cells were removed, pooled and centrifuged for 5 minutes at 300 g. After three rinses in Krebs-Ringer Buffer (KRB: 141.9 mM NaCl; 4.7 mM KCl; 1.0 mM CaCl₂, 11.2 mM MgSO₄; 2.5 mM Na₂HPO₄; 0.6 mM KH₂PO₄), the cells were counted under a microscope and diluted in the appropriate volume of KRB to achieve a cell density of about 2 x 10⁶ cells per mL. Aliquots of 0.5 mL were prewarmed with 0.4 mL Ca⁺⁺-free KRB for 5 minutes at 35°C and 0.1 mL of the appropriate solution of the drugs tested was added or its vehicle alone. 15 minutes later, the reaction was stopped by the addition of 2.5 mL ice-cold KRB and chilling on ice.
After centrifugation of the cell suspension, the histamine content of the supernatant was assayed fluorimetrically by the method of Shore et al., (Immunol. 1959, 127:182) omitting the extraction procedure (Excitation 365 nm; Emission 450 nm).
The total histamine content of the cell suspension was determined after sonication (2 minutes - 5 second pulse frequency).
The spontaneous histamine release was subtracted from all the values measured.

Row | Compound | IC50 (Bradykinin Receptor) | half-life at 60 µM (in vitro [1]; mouse, plasma) | half-life at 60 µM (in vitro [2]; human, plasma) | also measured
1 | N=C(N)NCCC[C@H](NC(=O)[C@@H]1CCCN1C(=O)[C@H]1Cc2ccccc2CN1C(=O)[C@H](CO)NC(=O)[C@H](Cc1cccs1)NC(=O)CNC(=O)[C@@H]1C[C@@H](O)CN1C(=O)[C@@H]1CCCN1C(=O)[C@H](CCCNC(=N)N)NC(=O)[C@H](N)CCCCNC(=NCC(F)(F)F)NCC(F)(F)F)C(=O)O [Compound 75, D-hArg(CH₂CF₃)₂-Arg-Pro-Hyp-Gly-Thi-Ser-D-Tic-Pro-Arg] (H-[d(hArg)(Nω,Nω'-(CH2CF3)2)]RP[Hyp]G[2Thi]S[dTic]PR-OH) | 1 nM |  |  | 
2 | CN=C(N)NCCC[C@H](NC(=O)[C@@H]1CCCN1C(=O)[C@H]1Cc2ccccc2CN1C(=O)[C@H](CO)NC(=O)[C@H](Cc1ccccc1)NC(=O)CNC(=O)[C@@H]1C[C@@H](O)CN1C(=O)[C@@H]1CCCN1C(=O)[C@H](CCCNC(N)=NC)NC(=O)[C@H](N)CCCCNC(=NCC(F)(F)F)NCC(F)(F)F)C(=O)O [Compound 21, D-hArg(CH₂CF₃)₂-Arg(Me)-Pro-Hyp-Gly-Phe-Ser-D-Tic-Pro-Arg(Me)] (H-[d(hArg)(Nω,Nω'-(CH2CF3)2)][Arg(Me)]P[Hyp]GFS[dTic]P[Arg(Me)]-OH) | 2.2 nM |  |  | 
3 | CN=C(N)NCCC[C@H](NC(=O)[C@H](Cc1ccccc1)NC(=O)[C@@H](Cc1ccccc1)NC(=O)[C@H](CO)NC(=O)[C@H](Cc1ccccc1)NC(=O)CNC(=O)[C@@H]1C[C@@H](O)CN1C(=O)[C@@H]1CCCN1C(=O)[C@H](CCCNC(=N)N)NC(=O)[C@H](N)CCCCNC(=NCC(F)(F)F)NCC(F)(F)F)C(=O)O [Compound 1, D-hArg(CH₂CF₃)₂-Arg-Pro-Hyp-Gly-Phe-Ser-D-Phe-Phe-Arg(Me)] |  | > 2 h | > 2 h | 
4 | CN=C(N)NCCC[C@H](NC(=O)[C@H](Cc1ccc(OC)cc1)NC(=O)[C@@H](Cc1ccccc1)NC(=O)[C@H](CO)NC(=O)[C@H](Cc1ccccc1)NC(=O)CNC(=O)[C@@H]1C[C@@H](O)CN1C(=O)[C@@H]1CCCN1C(=O)[C@H](CCCNC(=N)N)NC(=O)[C@H](N)CCCNC(=N)N)C(=O)O [Compound 74, D-Arg-Arg-Pro-Hyp-Gly-Phe-Ser-D-Phe-Tyr(Me)-Arg(Me)] (H-[dR]RP[Hyp]GFS[dF]Y(Me)[Arg(Me)]-OH) | 30 nM | > 2 h | > 2 h | 
5 | CN=C(N)NCCC[C@H](NC(=O)[C@@H]1C[C@@H]2CCCC[C@@H]2N1C(=O)[C@H]1Cc2ccccc2CN1C(=O)[C@H](CO)NC(=O)[C@H](Cc1ccccc1)NC(=O)CNC(=O)[C@@H]1C[C@@H](O)CN1C(=O)[C@@H]1CCCN1C(=O)[C@H](CCCNC(N)=NC)NC(=O)[C@H](N)CCCCNC(=NCC(F)(F)F)NCC(F)(F)F)C(=O)O [Compound 91, D-hArg(CH₂CF₃)₂-Arg(Me)-Pro-Hyp-Gly-Phe-Ser-D-Tic-Oic-Arg(Me)] (H-[d(hArg)(Nω,Nω'-(CH2CF3)2)][Arg(Me)]P[Hyp]GFS[dTic][Oic][Arg(Me)]-OH) | 0.05 nM | > 2 h | > 2 h | 
6 | CN=C(NC)NCCC[C@H](NC(=O)[C@@H]1C[C@@H]2CCCC[C@@H]2N1C(=O)[C@H]1Cc2ccccc2CN1C(=O)[C@H](CO)NC(=O)[C@H](Cc1cccs1)NC(=O)CNC(=O)[C@@H]1C[C@@H](O)CN1C(=O)[C@@H]1CCCN1C(=O)[C@H](CCCNC(=NC)NC)NC(=O)[C@H](N)CCCCNC(=NCC(F)(F)F)NCC(F)(F)F)C(=O)O [Compound 81, D-hArg(CH₂CF₃)₂-Arg(Me₂)-Pro-Hyp-Gly-Thi-Ser-D-Tic-Oic-Arg(Me₂)] | 0.15 nM |  |  | 
7 | CN=C(N)NCCC[C@H](NC(=O)[C@H](Cc1ccc(OC)cc1)NC(=O)[C@@H](Cc1ccccc1)NC(=O)[C@H](CO)NC(=O)[C@H](Cc1ccccc1)NC(=O)CNC(=O)[C@@H]1C[C@@H](O)CN1C(=O)[C@@H]1CCCN1C(=O)[C@H](CCCNC(=N)N)NC(=O)[C@H](N)CCCCNC(=NCC(F)(F)F)NCC(F)(F)F)C(=O)O [Compound 4, D-hArg(CH₂CF₃)₂-Arg-Pro-Hyp-Gly-Phe-Ser-D-Phe-Tyr(Me)-Arg(Me)] (H-[d(hArg)(Nω,Nω'-(CH2CF3)2)]RP[Hyp]GFS[dF]Y(Me)[Arg(Me)]-OH) |  |  |  | protection against bradykinin-induced hypotension (drop in blood pressure) [3]: reduced or prevented the drop in blood pressure
8 | RPPGFSPFR [bradykinin] |  |  |  | half-life at 60 µM (in vitro [1]): < 0.0833 h; half-life at 60 µM (in vitro [1]; rat, plasma): < 0.0833 h; half-life at 60 µM (in vitro [2]): < 0.0833 h; half-life in the systemic circulation [4]: less than 30 seconds
9 | CN=C(N)NCCC[C@H](NC(=O)[C@@H]1C[C@@H]2CCCC[C@@H]2N1C(=O)[C@H]1Cc2ccccc2CN1C(=O)[C@H](CO)NC(=O)[C@H](Cc1cccs1)NC(=O)CNC(=O)[C@@H]1C[C@@H](O)CN1C(=O)[C@@H]1CCCN1C(=O)[C@H](CCCNC(N)=NC)NC(=O)[C@H](N)CCCCNC(=NCC(F)(F)F)NCC(F)(F)F)C(=O)O [Compound 22, D-hArg(CH₂CF₃)₂-Arg(Me)-Pro-Hyp-Gly-Thi-Ser-D-Tic-Oic-Arg(Me)] | 0.05 nM | > 2 h | > 2 h | 
10 | CN=C(NC)NCCC[C@H](NC(=O)[C@@H]1C[C@@H]2CCCC[C@@H]2N1C(=O)[C@H]1Cc2ccccc2CN1C(=O)[C@H](CO)NC(=O)[C@H](Cc1ccccc1)NC(=O)CNC(=O)[C@@H]1C[C@@H](O)CN1C(=O)[C@@H]1CCCN1C(=O)[C@H](CCCNC(=NC)NC)NC(=O)[C@H](N)CCCCNC(=NCC(F)(F)F)NCC(F)(F)F)C(=O)O [Compound 89, D-hArg(CH₂CF₃)₂-Arg(Me₂)-Pro-Hyp-Gly-Phe-Ser-D-Tic-Oic-Arg(Me₂)] (H-[d(hArg)(Nω,Nω'-(CH2CF3)2)][Arg(Me2s)]P[Hyp]GFS[dTic][Oic][Arg(Me2s)]-OH) | 0.07 nM |  |  | EC50 (histamine release) [5]: 312 µg/mL (≈ 204 µM)
11 | CCN=C(N)NCCC[C@H](NC(=O)[C@H](N)CCCCNC(=NCC(F)(F)F)NCC(F)(F)F)C(=O)N1CCC[C@H]1C(=O)N1C[C@H](O)C[C@H]1C(=O)NCC(=O)N[C@@H](Cc1ccccc1)C(=O)N[C@@H](CO)C(=O)N1Cc2ccccc2C[C@@H]1C(=O)N1[C@H](C(=O)N[C@@H](CCCNC(=NC)NC)C(=O)O)C[C@@H]2CCCC[C@@H]21 [Compound 90, D-hArg(CH₂CF₃)₂-Arg(Et)-Pro-Hyp-Gly-Phe-Ser-D-Tic-Oic-Arg(Me₂)] (H-[d(hArg)(Nω,Nω'-(CH2CF3)2)][Arg(Et)]P[Hyp]GFS[dTic][Oic][Arg(Me2s)]-OH) | 0.04 nM |  |  | EC50 (histamine release) [5]: 216 µg/mL (≈ 141 µM)
